Laboratory results: PubChem BioAssay AID1361 (SRMLSC, 2008)
Calls of active or inactive are those of the source. No rule for the calls is given here.

Assay: mitochondrial fusion inhibitors, confirmation, cell-based, chemical genetic, wild-type and mutant (AID 1361)
Details: Cell-based mitochondrial fusion phenotype, imaging
[1] = mutant cells, measured here: mutant cell line IC50

| Compound | IC50 (WT cells) | IC50 [1] [µM] |
| --- | --- | --- |
| O=S(Cc1ccc(Br)cc1)Cc1nnc(SCc2ccc(Br)cc2)n1-c1ccccc1 (configuration not stated) | 13.7 µM | > 25 |
| Clc1ccc2c(c1)C(c1ccccc1Cl)=NCc1nnc(N3CCN(CCOc4ccccc4)CC3)n1-2 | 23.7 µM | > 25 |
| CCCCc1nc2ccccc2c(=O)n1-c1ccc(Cl)cc1[N+](=O)[O-] | > 25 µM (inactive) | > 25 |
| CS(=O)(=O)c1nc2ccccc2n1Cc1ccccc1 | > 25 µM (inactive) | > 25 |
| O=C(O)Cn1c(CC(=O)N2CCCC2)nc2ccccc21 | > 25 µM (inactive) | > 25 |
| CC(C)N(C(=S)NC1CCCCC1)c1ccccc1 | > 25 µM (inactive) | > 25 |
| CCCCNC(=S)N(C)/N=C/c1ccc2c(c1)OCO2 | 25 µM (inactive) | > 25 |
| CC(C)C(=O)Nc1nnc(SCC(=O)NCc2cccs2)s1 | > 25 µM (inactive) | > 25 |
| CC1CCN(C(C)C(=O)Nc2ccccc2-c2ccccc2)CC1 (configuration not stated) | > 25 µM (inactive) | > 25 |
| CC(C)C(=O)N1CCC(CN=Cc2c(O)n(C3CCCCC3)c(=O)n(C3CCCCC3)c2=O)CC1 | 23 µM | > 25 |
| Cc1ccccc1COC(=O)c1nn(-c2ccccc2)nc1N | > 25 µM (inactive) | > 25 |
| O=C(c1ccc(Cl)c(Cl)c1)c1cnc(Nc2ccccc2)s1 | > 25 µM (inactive) | > 25 |
| Cc1cccc(N(C)C(=S)Oc2ccc3ccccc3c2)c1 | 8.79 µM | > 25 |
| CSCc1nnc(NC(=O)c2ccc(S(=O)(=O)N(CC(C)C)CC(C)C)cc2)o1 | > 25 µM (inactive) | > 25 |
| Clc1ccc(C2=Nn3c(nnc3-c3cc(-c4ccccc4)n[nH]3)SC2)cc1 | > 25 µM (inactive) | > 25 |
| COc1ccc2nc(NC(=O)CN(c3ccc(C)cc3)S(=O)(=O)c3c(C)nn(C)c3C)sc2c1 | 16 µM | > 25 |
| COc1ccccc1CN=Cc1[nH]c2ccc(Br)c(Cl)c2c1O | > 25 µM (inactive) | > 25 |
| c1ccc(-c2cn3c(n2)CCc2ccc4cccnc4c2-3)cc1 | 23.7 µM (inactive) | 21.3 |
| O=c1cc2c(nn1Cc1ccc(Cl)cc1Cl)-c1ccccc1CC2 | 10.6 µM | 17.8 |
| C=CCOc1c(Br)cc(/C=N/Nc2ccc(C(=O)O)cc2)cc1OCC | 22.1 µM | > 25 |
| N#CC1=C(N)SC(N)=C(C#N)C1c1c(Cl)cccc1Cl | > 25 µM (inactive) | > 25 |

| Compound | IC50 (WT cells) | IC50 [1] [µM] |
| --- | --- | --- |
| CCn1c(CCCOc2ccc(Cl)cc2Cl)nnc1SCC(=O)Nc1cc(F)ccc1C | 15.9 µM | > 25 |
| CC(=O)Nc1cccc(Oc2ncnc3scc(-c4ccc(C(C)C)cc4)c23)c1 | 14.5 µM | > 25 |
| Cc1ccc(C)c(NC(=O)c2cc(-c3ccccc3)nn2-c2ccccc2)c1 | 4.99 µM | > 25 |
| CCc1nn(C(C)C(=O)NCCN2CCN(c3cccc(C)c3C)CC2)c(=O)c2cc3occc3n12 (configuration not stated) | > 25 µM (inactive) | > 25 |
| O=C(CCCCCn1c(=S)[nH]c2cc3c(cc2c1=O)OCO3)N1CCN(C(=O)c2ccco2)CC1 | > 25 µM (inactive) | > 25 |
| Oc1cccc(C(O)CNCc2ccc(OCc3ccc(Cl)cc3Cl)cc2)c1 (configuration not stated) | 15 µM | 17.2 |
| S=c1[nH]nc(-c2ccc3ccccc3n2)n1-c1cc(Cl)cc(Cl)c1 | 13.7 µM | > 25 |
| O=C(CC(Nc1ccc(F)cc1)c1ccccc1)c1ccccc1 (configuration not stated) | 16.5 µM | > 25 |
| CSc1ccc(Cl)c(C(=O)NCCOc2cc(C)ccc2C(C)C)c1 | 12.9 µM | > 25 |
| C[C@@H](C[C@@H](O)[C@H](O)C(C)(C)O)[C@@H]1CC[C@]2(C)C3=CC[C@H]4C(C)(C)C(=O)CC[C@]4(C)[C@H]3CC[C@@]12C | > 25 µM (inactive) | > 25 |
| O=C(NC(=S)Nc1ccccc1N1CCCCC1)c1ccco1 | > 25 µM (inactive) | 23 |
| COc1ccc(C2=NN(C(=O)c3cccs3)C(c3ccccc3O)C2)cc1 (configuration not stated) | 13.8 µM | 24.9 |
| N#Cc1ccc(NC(=O)Nc2ccc(Cl)cc2)cc1 | 9.83 µM | 13.6 |
| CC(c1ccco1)N(C(=O)COc1ccccc1[N+](=O)[O-])c1ccccn1 (configuration not stated) | > 25 µM (inactive) | > 25 |
| CCc1cc(C(=O)Cc2ccc(F)cc2)c(O)cc1O | > 25 µM (inactive) | > 25 |
| Cc1oc(-c2ccccc2)[n+]([O-])c1C | > 25 µM (inactive) | > 25 |
| Cc1ccc(/C=N/n2cnc3sc(-c4ccccc4)cc3c2=O)o1 | > 25 µM (inactive) | > 25 |
| CN1/C(=C\C(=O)Nc2cccc(Cl)c2)C(C)(C)c2ccccc21 | 9.74 µM | 24.7 |
| O=C(Nn1c(C2CCCCC2)nc2ccccc2c1=O)c1ccc(Cl)c([N+](=O)[O-])c1 | 14.8 µM | > 25 |
| CCCN(Cc1ccccc1)C(=S)Nc1ccc(SC(F)F)cc1 | 20.6 µM | > 25 |
